We go through 17 compounds from the OPERA property sets (Mansouri et al. 2018).

Each structure is given as a SMILES string.

In turn, `O=C1NC(=O)C2(CCCCCC2)C(=O)N1` returned a logP of 1.36.

Regarding `O=C1NC(=O)C2(CCCCCCC2)C(=O)N1`, the logP was determined as 1.79.

`O=C1NC(=O)C2(CC2)C(=O)N1` displayed a logP of -0.53.

In turn, `CCC1(CC=C(C)C)C(=O)NC(=O)NC1=O` displayed a logP of 1.73.

`CC1(c2ccccc2)C(=O)NC(=O)NC1=O`: the logP is 0.91.

For the compound `CC(C)=CCC1(C(C)C)C(=O)NC(=O)NC1=O`, the logP amounted to 2.23.

The compound `O=C1NC(=S)NC(=O)C12CCCCC2` had a logP of 1.78.

In turn, `O=C1NC(=O)C2(CCCC2)C(=O)N1` came in with a logP of 0.24.

On to `C=CCC1(C)C(=O)NC(=O)NC1=O`, for which the logP came to 0.36.

The compound `CC(C)=CCC1(C(C)(C)C)C(=O)NC(=O)NC1=O` registered a logP of 2.56.

Turning to `O=C1NC(=O)C2(CCCCCCCCCCC2)C(=O)N1`, the lipophilicity (logP) was 3.51.

Compound `CC1(C)C(=O)NC(=O)NC1=O` had a logP of -0.44.

On to `O=C1NC(=O)C2(CCCCC2)C(=O)N1`, for which the logP is 0.91.

Take `O=C1NC(=O)C(c2ccccc2)(c2ccccc2)C(=O)N1`: the log partition coefficient (logP) was 1.96.

`CCC1(C)C(=O)NC(=O)NC1=O` registered a logP of 0.08.

As to `O=C1NC(=O)C2(CCCCCCCCCC2)C(=O)N1`, the logP worked out at 3.15.

Compound `O=C1NC(=O)C2(CCC2)C(=O)N1` returned a log partition coefficient (logP) of -0.27.

One may read the logP as a log measure of how a compound divides between an organic and an aqueous phase. A lower logP goes with a more hydrophilic compound.
